Results reported in patent US20060069132A1, “Azolecarboxamide herbicides” (priority 2004, published 2006).

Tests used:
morningglory [1] = assay: Test A pre-/postemergence herbicide test; format: in vivo, Ipomoea spp.
Description: (§1) Seeds of plant species selected from barnyardgrass (Echinochloa crus-galli (L.) Beauv.), downy bromegrass (Bromus tectorum L.), large crabgrass (Digitaria sanguinalis (L.) Scop.), giant foxtail (Setaria faberi Herrm.), morningglory (Ipomoea spp.), redroot pigweed (Amaranthus retroflexus L.) and velvetleaf (Abutilon theophrasti Medik.) were planted into a sandy loam soil and treated preemergence with a directed soil spray using test chemicals formulated in a non-phytotoxic solvent mixture which included a surfactant. At the same time plants selected from these species were also treated postemergence by spraying to runoff with test chemicals formulated.
(§2) Plants ranged in height from 2 to 10 cm and were in the one- to two-leaf stage for the postemergence treatment. Treated plants and untreated controls were maintained in a greenhouse for approximately ten days, after which time all treated plants were compared to untreated controls and visually evaluated for injury. Plant response ratings, summarized in Table A, are based on a 0 to 100 scale where 0 is no effect and 100 is complete control. A dash (-) response means no test results.

velvetleaf [2] = assay: Test A pre-/postemergence herbicide test; format: in vivo, Abutilon theophrasti
Description: as §1, §2

barnyardgrass [3] = assay: Test A pre-/postemergence herbicide test; format: in vivo, Echinochloa crus-galli
Description: as §1, §2

large crabgrass [4] = assay: Test A pre-/postemergence herbicide test; format: in vivo, Digitaria sanguinalis
Description: as §1, §2

redroot pigweed = assay: Test A pre-/postemergence herbicide test; format: in vivo, Amaranthus retroflexus
Description: as §1, §2

giant foxtail [5] = assay: Test A pre-/postemergence herbicide test; format: in vivo, Setaria faberi
Description: as §1, §2

rice = assay: Test B flooded paddy test; format: in vivo, Oryza sativa; settings: 125 g ai/ha, scale 0 to 100 (0 no effect, 100 complete control)
Description: (§3) At the same time, plants selected from these crop and weed species and also blackgrass (Alopecurus myosuroides Huds.), wheat (Triticum aestivum L.) and wild oat (Avena fatua L.) were treated with postemergence applications of test chemicals formulated in the same manner. Plants ranged in height from 2 to 18 cm (1- to 4-leaf stage) for postemergence treatments. Plant species in the flooded paddy test consisted of rice (Oryza sativa L.), small flower umbrella sedge (Cyperus difformis L.), ducksalad (Heteranthera limosa (Sw.) Willd.) and barnyardgrass (Echinochloa crus-galli (L.) Beauv.) grown to the 2-leaf stage for testing. Treated plants and controls were maintained in a greenhouse for 13 to 15 days, after which time all species were compared to controls and visually evaluated. Plant response ratings, summarized in Table B, are based on a scale of 0 to 100 where 0 is no effect and 100 is complete control. A dash (-) response means no test result.

velvetleaf [6] = assay: Test B pre-/postemergence herbicide test; format: in vivo, Abutilon theophrasti
Description: (§4) Seeds selected from barnyardgrass (Echinochloa crus-galli (L.) Beauv.), Surinam grass (Urochloa decumbens (Staph) R. D. Webster, previously named Brachiaria decumbens Stapf), cocklebur (Xanthium strumarium L.), corn (Zea mays L.), large crabgrass (Digitaria sanguinalis (L.) Scop.), giant foxtail (Setaria faberi Herim.), lambsquarters (Chenopodium album L.), morningglory (Ipomoea coccinea L.), pigweed (Amaranthus retroflexus L.), rice (Oryza sativa L.) and velvetleaf (Abutilon theophrasti Medik.) were planted and treated preemergence with test chemicals formulated in a non-phytotoxic solvent mixture which included a surfactant.
as §3

giant foxtail [7] = assay: Test B pre-/postemergence herbicide test; format: in vivo, Setaria faberi
Description: as §4, §3

lambsquarters = assay: Test B pre-/postemergence herbicide test; format: in vivo, Chenopodium album
Description: as §4, §3

morningglory [8] = assay: Test B pre-/postemergence herbicide test; format: in vivo, Ipomoea coccinea
Description: as §4, §3

barnyardgrass [9] = assay: Test B pre-/postemergence herbicide test; format: in vivo, Echinochloa crus-galli; settings: Postemergence, scale 0 (no effect) to 100 (complete control)
Description: as §4, §3

pigweed = assay: Test B pre-/postemergence herbicide test; format: in vivo, Amaranthus retroflexus
Description: as §4, §3

barnyardgrass [10] = assay: Test B flooded paddy test; format: in vivo, Echinochloa crus-galli; settings: 125 g ai/ha, scale 0 to 100 (0 no effect, 100 complete control)
Description: as §3

[11] = tested on: small flower umbrella sedge; assay: Test B flooded paddy test; format: in vivo, Cyperus difformis; settings: 125 g ai/ha, scale 0 to 100 (0 no effect, 100 complete control)
Description: as §3

corn = assay: Test B pre-/postemergence herbicide test; format: in vivo, Zea mays
Description: as §4, §3

wheat = assay: Test B postemergence herbicide test; format: in vivo, Triticum aestivum; set-up: key to Wheat plant response rating: 0 = no effect, 100 = complete control
Description: as §3

large crabgrass [12] = assay: Test B pre-/postemergence herbicide test; format: in vivo, Digitaria sanguinalis
Description: as §4, §3

blackgrass = assay: Test B postemergence herbicide test; format: in vivo, Alopecurus myosuroides
Description: as §3

Surinam grass = assay: Test B pre-/postemergence herbicide test; format: in vivo, Urochloa decumbens
Description: as §4, §3

cocklebur = assay: Test B pre-/postemergence herbicide test; format: in vivo, Xanthium strumarium
Description: as §4, §3

wild oat = assay: Test B postemergence herbicide test; format: in vivo, Avena fatua
Description: as §3

[13] = Postemergence, 125 g ai/ha, 0 to 100 scale, 0 no effect, 100 complete control
[14] = Postemergence, 500 g ai/ha, 0 to 100 scale, 0 no effect, 100 complete control
[15] = Preemergence, 500 g ai/ha, visual rating, 0 to 100 scale (0 no effect, 100 complete control)
[16] = preemergence, 125 g ai/ha, visual injury, 0 to 100 scale (0 no effect, 100 complete control)
[17] = Postemergence, 250 g ai/ha, 0 to 100 scale, 0 no effect, 100 complete control
[18] = Postemergence, 1000 g ai/ha, 0 to 100 scale, 0 no effect, 100 complete control
[19] = Preemergence, 1000 g ai/ha, visual rating, 0 to 100 scale (0 no effect, 100 complete control)
[20] = preemergence, 250 g ai/ha, visual injury, 0 to 100 scale (0 no effect, 100 complete control)
[21] = Postemergence, 2000 g ai/ha, 0 to 100 scale, 0 no effect, 100 complete control
[22] = Preemergence, 2000 g ai/ha, visual rating, 0 to 100 scale (0 no effect, 100 complete control)
[23] = Postemergence, 500 g ai/ha, scale 0 (no effect) to 100 (complete control)
[24] = postemergence, 125 g ai/ha, scale 0 to 100
[25] = preemergence, 500 g ai/ha, visual injury, 0 to 100 scale (0 no effect, 100 complete control)

## C=Cn1nc(C(C)(C)C)cc1C(=O)Nc1cccc(C(=O)NCCCl)c1 [Compound 38]
Morningglory [1]; [13]
  Morningglory plant response rating: 0
Morningglory [1]; [14]
  Plant response rating, Morningglory: 0
Morningglory [1]; [15]
  Morningglory plant response rating: 10
Morningglory [1]; [16]
  Morningglory plant response rating: 5
Velvetleaf [2]; [13]
  Velvetleaf plant response rating: 10
Velvetleaf [2]; [14]
  Plant response rating, Velvetleaf: 20
Velvetleaf [2]; [15]
  Velvetleaf plant response rating: 5
Velvetleaf [2]; [16]
  Velvetleaf plant response rating: 0
Barnyardgrass [3]; [13]
  Barnyardgrass plant response rating: 40
Barnyardgrass [3]; [14]
  Plant response rating, Barnyardgrass: 55
Barnyardgrass [3]; [15]
  Barnyardgrass plant response rating: 5
Barnyardgrass [3]; [16]
  Barnyardgrass plant response rating: 0
Large crabgrass [4]; [13]
  Crabgrass, Large plant response rating: 30
Large crabgrass [4]; [14]
  Plant response rating, Crabgrass, Large: 60
Large crabgrass [4]; [15]
  Crabgrass, Large plant response rating: 10
Large crabgrass [4]; [16]
  Crabgrass, Large plant response rating: 0
Redroot pigweed; [13]
  Pigweed plant response rating: 50
Redroot pigweed; [14]
  Plant response rating, Pigweed: 70
Redroot pigweed; [15]
  Pigweed plant response rating: 0
Redroot pigweed; [16]
  Pigweed plant response rating: 0
Giant foxtail [5]; [13]
  Foxtail, Giant plant response rating: 50
Giant foxtail [5]; [14]
  Plant response rating, Foxtail, Giant: 60
Giant foxtail [5]; [15]
  Foxtail, Giant plant response rating: 0
Giant foxtail [5]; [16]
  Foxtail, Giant plant response rating: 0

## C=Cn1nc(C(C)(C)C)cc1C(=O)Nc1cccc(C(=O)NC2CC2)c1 [Compound 39]
Morningglory [1]; [17]
  Morningglory plant response rating: 0
Morningglory [1]; [18]
  Plant response rating, Morningglory: 0
Morningglory [1]; [19]
  Morningglory plant response rating: 20
Morningglory [1]; [20]
  Morningglory plant response rating: 0
Velvetleaf [2]; [17]
  Velvetleaf plant response rating: 10
Velvetleaf [2]; [18]
  Plant response rating, Velvetleaf: 10
Velvetleaf [2]; [19]
  Velvetleaf plant response rating: 20
Velvetleaf [2]; [20]
  Velvetleaf plant response rating: 10
Barnyardgrass [3]; [17]
  Barnyardgrass plant response rating: 10
Barnyardgrass [3]; [18]
  Plant response rating, Barnyardgrass: 55
Barnyardgrass [3]; [19]
  Barnyardgrass plant response rating: 25
Barnyardgrass [3]; [20]
  Barnyardgrass plant response rating: 15
Large crabgrass [4]; [17]
  Crabgrass, Large plant response rating: 10
Large crabgrass [4]; [18]
  Plant response rating, Crabgrass, Large: 35
Large crabgrass [4]; [19]
  Crabgrass, Large plant response rating: 85
Large crabgrass [4]; [20]
  Crabgrass, Large plant response rating: 35
Redroot pigweed; [17]
  Pigweed plant response rating: 70
Redroot pigweed; [18]
  Plant response rating, Pigweed: 75
Redroot pigweed; [19]
  Pigweed plant response rating: 100
Redroot pigweed; [20]
  Pigweed plant response rating: 55
Giant foxtail [5]; [17]
  Foxtail, Giant plant response rating: 10
Giant foxtail [5]; [18]
  Plant response rating, Foxtail, Giant: 45
Giant foxtail [5]; [19]
  Foxtail, Giant plant response rating: 40
Giant foxtail [5]; [20]
  Foxtail, Giant plant response rating: 20

## Cn1nc(C(C)(C)C)cc1C(=O)Nc1cccc2c1CCC2=NO [Compound 111]
Morningglory [1]; [14]
  Morningglory plant response rating: 5
Morningglory [1]; [21]
  Plant response rating, Morningglory: 0
Morningglory [1]; [15]
  Morningglory plant response rating: 0
Morningglory [1]; [22]
  Morningglory plant response rating: 0
Velvetleaf [2]; [14]
  Velvetleaf plant response rating: 0
Velvetleaf [2]; [21]
  Plant response rating, Velvetleaf: 0
Velvetleaf [2]; [15]
  Velvetleaf plant response rating: 0
Velvetleaf [2]; [22]
  Velvetleaf plant response rating: 0
Barnyardgrass [3]; [14]
  Barnyardgrass plant response rating: 0
Barnyardgrass [3]; [21]
  Plant response rating, Barnyardgrass: 0
Barnyardgrass [3]; [15]
  Barnyardgrass plant response rating: 0
Barnyardgrass [3]; [22]
  Barnyardgrass plant response rating: 10
Large crabgrass [4]; [14]
  Crabgrass, Large plant response rating: 10
Large crabgrass [4]; [21]
  Plant response rating, Crabgrass, Large: 10
Large crabgrass [4]; [15]
  Crabgrass, Large plant response rating: 25
Large crabgrass [4]; [22]
  Crabgrass, Large plant response rating: 30
Redroot pigweed; [14]
  Pigweed plant response rating: 5
Redroot pigweed; [21]
  Plant response rating, Pigweed: 10
Redroot pigweed; [15]
  Pigweed plant response rating: 10
Redroot pigweed; [22]
  Pigweed plant response rating: 10
Giant foxtail [5]; [14]
  Foxtail, Giant plant response rating: 0
Giant foxtail [5]; [21]
  Plant response rating, Foxtail, Giant: 0
Giant foxtail [5]; [15]
  Foxtail, Giant plant response rating: 45
Giant foxtail [5]; [22]
  Foxtail, Giant plant response rating: 75

## CCN(CC)C(=O)c1cccc(NC(=O)c2nn(C(C)(C)C)nc2C)n1 [Compound 440]
rice
  Rice plant response rating: 0
Velvetleaf [6]; [23]
  Velvetleaf plant response rating: 0
Velvetleaf [6]; [24]
  Velvetleaf plant response rating: 0
Giant foxtail [7]; [23]
  Foxtail, Giant plant response rating: 0
Giant foxtail [7]; [24]
  Foxtail, Giant plant response rating: 0
lambsquarters; [23]
  Lambsquarters plant response rating: 10
lambsquarters; [24]
  Lambsquarters plant response rating: 0
Morningglory [8]; [23]
  Morningglory plant response rating: 20
Morningglory [8]; [24]
  Morningglory plant response rating: 0
Barnyardgrass [9]; 125 g ai/ha
  Barnyardgrass plant response rating: 0
Barnyardgrass [9]; 500 g ai/ha
  Barnyardgrass plant response rating: 0
pigweed; [23]
  Pigweed plant response rating: 10
pigweed; [24]
  Pigweed plant response rating: 0
Barnyardgrass [10]
  Barnyardgrass plant response rating: 0
[11]
  Sedge, Umbrella plant response rating: 0
corn; [23]
  Corn plant response rating: 20
corn; [24]
  Corn plant response rating: 0
wheat; 500 g ai/ha, scale 0 to 100, 0 no effect, 100 complete control, preemergence
  Wheat plant response rating: 0
wheat; [23]
  Wheat plant response rating: 0
wheat; [24]
  Wheat plant response rating: 0
Large crabgrass [12]; [23]
  Crabgrass, Large plant response rating: 10
Large crabgrass [12]; [24]
  Crabgrass, Large plant response rating: 0
blackgrass; [23]
  Blackgrass plant response rating: 20
blackgrass; [24]
  Blackgrass plant response rating: 20
Surinam grass; [23]
  Surinam Grass plant response rating: 10
Surinam grass; [24]
  Surinam Grass plant response rating: 0
cocklebur; [23]
  Cocklebur plant response rating: 0
cocklebur; [24]
  Cocklebur plant response rating: 0
Wild oat; [23]
  Oat, Wild plant response rating: 30
Wild oat; [24]
  Oat, Wild plant response rating: 20

## CCc1nn(C(C)(C)C)cc1C(=S)Nc1cc(C(=S)N(C)C)ccc1F [Compound 453]
Morningglory [1]; [13]
  Morningglory plant response rating: 10
Morningglory [1]; [14]
  Morningglory plant response rating: 10
Morningglory [1]; [16]
  Morningglory plant response rating: 0
Morningglory [1]; [25]
  Morningglory plant response rating: 0
Velvetleaf [2]; [13]
  Velvetleaf plant response rating: 5
Velvetleaf [2]; [14]
  Velvetleaf plant response rating: 10
Velvetleaf [2]; [16]
  Velvetleaf plant response rating: 0
Velvetleaf [2]; [25]
  Velvetleaf plant response rating: 0
Barnyardgrass [3]; [13]
  Barnyardgrass plant response rating: 10
Barnyardgrass [3]; [14]
  Barnyardgrass plant response rating: 15
Barnyardgrass [3]; [16]
  Barnyardgrass plant response rating: 20
Barnyardgrass [3]; [25]
  Barnyardgrass plant response rating: 45
Large crabgrass [4]; [13]
  Crabgrass, Large plant response rating: 10
Large crabgrass [4]; [14]
  Crabgrass, Large plant response rating: 10
Large crabgrass [4]; [16]
  Crabgrass, Large plant response rating: 10
Large crabgrass [4]; [25]
  Crabgrass, Large plant response rating: 15
Redroot pigweed; [13]
  Pigweed plant response rating: 10
Redroot pigweed; [14]
  Pigweed plant response rating: 20
Redroot pigweed; [16]
  Pigweed plant response rating: 10
Redroot pigweed; [25]
  Pigweed plant response rating: 10
Giant foxtail [5]; [13]
  Foxtail, Giant plant response rating: 10
Giant foxtail [5]; [14]
  Foxtail, Giant plant response rating: 10
Giant foxtail [5]; [16]
  Foxtail, Giant plant response rating: 0
Giant foxtail [5]; [25]
  Foxtail, Giant plant response rating: 0
